Values after ≈ are worked out from the molar mass of the structure shown.
Columns and labels:
E. faecalis VRE 6 = experiment: MIC, broth microdilution, vancomycin-resistant E. faecalis VRE 6 (VanA); format: cell-based, Enterococcus faecalis; details: for MIC: Enterococcus faecalis VRE 6 (vancomycin-resistant), read-out: MIC; for MIC-fold improvement vs. vancomycin: VRE 6, ratio of MIC of vancomycin and MIC of analogue
How it was run: (§1)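 Assayed by broth microdilution under CLSI antimicrobial testing rules. One case paired the analog or control drug with vancomycin at a 10 μM final concentration; water and inoculum-free broth were controls.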

[1] = tested on: human T-lymphocyte (CEM) cells; experiment: Cytostatic activity, CEM cell proliferation; format: cell-based; details: mean ± SD of three experiments; highest concentration tested 250 µM; 3 days; read-out: Toxicity (IC50) CEM
How it was run: (§2)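 Suspensions (300,000–500,000 cells/mL) combined with equal volumes of diluted compound; 37°C; L1210 2 d / CEM 3 d / HeLa 4 d; counted by Coulter counter; IC50 vs untreated wells.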

MRSA KS2 = experiment: MIC, broth microdilution, MRSA KS2; format: cell-based, Staphylococcus aureus; details: for MIC-fold improvement vs. vancomycin: MRSA KS2, ratio of MIC of vancomycin and MIC of analogue; for MIC: Staphylococcus aureus MRSA KS2, read-out: MIC
How it was run: as §1

E. faecalis VSE 1 = experiment: MIC, broth microdilution, vancomycin-sensitive E. faecalis (VSE 1); format: cell-based, Enterococcus faecalis; details: for MIC: Enterococcus faecalis VSE 1 (vancomycin-sensitive), read-out: MIC; for MIC-fold improvement vs. vancomycin: VSE 1, ratio of MIC of vancomycin and MIC of analogue
How it was run: as §1

MRSA KS1 = experiment: MIC, broth microdilution, MRSA KS1; format: cell-based, Staphylococcus aureus; details: for MIC-fold improvement vs. vancomycin: MRSA KS1, ratio of MIC of vancomycin and MIC of analogue; for MIC: Staphylococcus aureus MRSA KS1, read-out: MIC
How it was run: as §1

[2] = tested on: S. aureus VSSA (ATCC 6538); experiment: MIC, broth microdilution, vancomycin-sensitive S. aureus (VSSA/MSSA, ATCC 6538); format: cell-based, Staphylococcus aureus; details: for MIC: Staphylococcus aureus VSSA, read-out: MIC; for MIC-fold improvement vs. vancomycin: VSSA, ratio of MIC of vancomycin and MIC of analogue
How it was run: as §1

E. faecalis VRE 53 = experiment: MIC, broth microdilution, vancomycin-resistant E. faecalis VRE 53 (VanA); format: cell-based, Enterococcus faecalis; details: for MIC: Enterococcus faecalis VRE 53 (vancomycin-resistant), read-out: MIC; for MIC-fold improvement vs. vancomycin: VRE 53, ratio of MIC of vancomycin and MIC of analogue
How it was run: as §1

E. faecalis VRE 37 = experiment: MIC, broth microdilution, vancomycin-resistant E. faecalis VRE 37 (VanA); format: cell-based, Enterococcus faecalis; details: for MIC: Enterococcus faecalis VRE 37 (vancomycin-resistant), read-out: MIC; for MIC-fold improvement vs. vancomycin: VRE 37, ratio of MIC of vancomycin and MIC of analogue
How it was run: as §1

[3] = tested on: L1210, CEM and HeLa cell lines; experiment: Cytostatic activity, average or summary over L1210, CEM and HeLa; format: cell-based; details: average of L1210, CEM and HeLa; read-out: Toxicity (IC50) Average
How it was run: as §2

E. faecalis VRE 29 = experiment: MIC, broth microdilution, vancomycin-resistant E. faecalis VRE 29 (VanA); format: cell-based, Enterococcus faecalis; details: for MIC: Enterococcus faecalis VRE 29 (vancomycin-resistant), read-out: MIC; for MIC-fold improvement vs. vancomycin: VRE 29, ratio of MIC of vancomycin and MIC of analogue
How it was run: as §1

[4] = tested on: human cervix carcinoma (HeLa) cells; experiment: Cytostatic activity, HeLa cell proliferation; format: cell-based; details: mean ± SD of three experiments; highest concentration tested 250 µM; 4 days; read-out: Toxicity (IC50) HeLa
How it was run: as §2

[5] = tested on: Murine leukemia (L1210) cells; experiment: Cytostatic activity, L1210 cell proliferation; format: cell-based; details: mean ± SD of three experiments; highest concentration tested 250 µM; 2 days; read-out: Toxicity (IC50) L1210
How it was run: as §2

MRSA KS89 = experiment: MIC, broth microdilution, MRSA KS89; format: cell-based, Staphylococcus aureus; details: for MIC-fold improvement vs. vancomycin: MRSA KS8, ratio of MIC of vancomycin and MIC of analogue; for MIC: Staphylococcus aureus MRSA KS8, read-out: MIC
How it was run: as §1

S. aureus VRSA = experiment: MIC, broth microdilution, vancomycin-resistant S. aureus (VRSA); format: cell-based, Staphylococcus aureus; details: for MIC: Staphylococcus aureus VRSA, read-out: MIC; for MIC-fold improvement vs. vancomycin: VRSA, ratio of MIC of vancomycin and MIC of analogue
How it was run: as §1

S. aureus VISA/HIP5827 = experiment: MIC, broth microdilution, vancomycin-intermediate S. aureus VISA HIP5827; format: cell-based, Staphylococcus aureus; details: for MIC: Staphylococcus aureus VISA/HIP5827, read-out: MIC; for MIC-fold improvement vs. vancomycin: VISA/HIP5827, ratio of MIC of vancomycin and MIC of analogue
How it was run: as §1

MRSA KS6 = experiment: MIC, broth microdilution, MRSA KS6; format: cell-based, Staphylococcus aureus; details: for MIC-fold improvement vs. vancomycin: MRSA KS6, ratio of MIC of vancomycin and MIC of analogue; for MIC: Staphylococcus aureus MRSA KS6, read-out: MIC
How it was run: as §1

SMILES	MIC (E. faecalis VRE 6)	MIC-fold improvement vs. vancomycin (E. faecalis VRE 6)	IC50 [1]	MIC-fold improvement vs. vancomycin (MRSA KS2)	MIC (MRSA KS2)	MIC (E. faecalis VSE 1)	MIC-fold improvement vs. vancomycin (E. faecalis VSE 1)	MIC-fold improvement vs. vancomycin (MRSA KS1)	MIC (MRSA KS1)	MIC [2]	MIC-fold improvement vs. vancomycin [2]	MIC (E. faecalis VRE 53)	MIC-fold improvement vs. vancomycin (E. faecalis VRE 53)	MIC (E. faecalis VRE 37)	IC50 [3]	MIC (E. faecalis VRE 29)	MIC-fold improvement vs. vancomycin (E. faecalis VRE 29)	IC50 [4]	IC50 [5]	MIC-fold improvement vs. vancomycin (MRSA KS89)	other results
CN[C@H](CC(C)C)C(=O)N[C@H]1C(=O)N[C@@H](CC(N)=O)C(=O)N[C@H]2C(=O)N[C@H]3C(=O)N[C@H](C(=O)N[C@H](C(=O)NCC(=O)Nc4cccc5ccccc45)c4cc(O)cc(O)c4-c4cc3ccc4O)[C@H](O)c3ccc(c(Cl)c3)Oc3cc2cc(c3O[C@@H]2O[C@H](CO)[C@@H](O)[C@H](O)[C@H]2O[C@H]2C[C@](C)(N)[C@H](O)[C@H](C)O2)Oc2ccc(cc2Cl)[C@H]1O [Vanc-41]	6.25 µM (≈ 10.2 µg/mL)	32	> 250 µM	2	0.39 µM (≈ 0.636 µg/mL)	0.39 µM (≈ 0.636 µg/mL)	4	2	0.39 µM (≈ 0.636 µg/mL)	0.78 µM (≈ 1.27 µg/mL)	1	25 µM (≈ 40.8 µg/mL)	16	12.5 µM (≈ 20.4 µg/mL)	> 250 µM	12.5 µM (≈ 20.4 µg/mL)	32	> 250 µM	> 250 µM	2	MIC (MRSA KS89): 0.39 µM (≈ 0.636 µg/mL); MIC (S. aureus VRSA): 6.25 µM (≈ 10.2 µg/mL); MIC-fold improvement vs. vancomycin (S. aureus VRSA): 16; MIC (S. aureus VISA/HIP5827): 1.56 µM (≈ 2.55 µg/mL); MIC-fold improvement vs. vancomycin (S. aureus VISA/HIP5827): 4; MIC-fold improvement vs. vancomycin (MRSA KS6): 2; MIC (MRSA KS6): 0.39 µM (≈ 0.636 µg/mL)
CN[C@H](CC(C)C)C(=O)N[C@H]1C(=O)N[C@@H](CC(N)=O)C(=O)N[C@H]2C(=O)N[C@H]3C(=O)N[C@H](C(=O)N[C@H](C(=O)NCC(=O)Nc4ccc(Cl)cn4)c4cc(O)cc(O)c4-c4cc3ccc4O)[C@H](O)c3ccc(c(Cl)c3)Oc3cc2cc(c3O[C@@H]2O[C@H](CO)[C@@H](O)[C@H](O)[C@H]2O[C@H]2C[C@](C)(N)[C@H](O)[C@H](C)O2)Oc2ccc(cc2Cl)[C@H]1O [Vanc-44]	12.5 µM (≈ 20.2 µg/mL)	16	≥ 250 µM	1	0.78 µM (≈ 1.26 µg/mL)	0.78 µM (≈ 1.26 µg/mL)	2	1	0.78 µM (≈ 1.26 µg/mL)	0.78 µM (≈ 1.26 µg/mL)	1	50 µM (≈ 80.8 µg/mL)	8	25 µM (≈ 40.4 µg/mL)	203 µM	25 µM (≈ 40.4 µg/mL)	16	108 ± 38 µM	≥ 250 µM	1	MIC-fold improvement vs. vancomycin (E. faecalis VRE 37): 16; MIC (MRSA KS89): 0.78 µM (≈ 1.26 µg/mL); MIC (S. aureus VRSA): 12.5 µM (≈ 20.2 µg/mL); MIC-fold improvement vs. vancomycin (S. aureus VRSA): 8; MIC (S. aureus VISA/HIP5827): 1.56 µM (≈ 2.52 µg/mL); MIC-fold improvement vs. vancomycin (S. aureus VISA/HIP5827): 4; MIC-fold improvement vs. vancomycin (MRSA KS6): 0.25; MIC (MRSA KS6): 3.13 µM (≈ 5.06 µg/mL)
CNC(CC(C)C)C(=O)NC1C(=O)NC(CC(N)=O)C(=O)NC2C(=O)NC3C(=O)NC(C(=O)NC(C(=O)NCCCNC(=O)c4cc5cc(F)ccc5[nH]4)c4cc(O)cc(O)c4-c4cc3ccc4O)C(O)c3ccc(c(Cl)c3)Oc3cc2cc(c3OC2OC(CO)C(O)C(O)C2OC2CC(C)(N)C(O)C(C)O2)Oc2ccc(cc2Cl)C1O (stereo not drawn) [Vanc-45]	3.13 µM (≈ 5.22 µg/mL)	64	> 250 µM	2	0.39 µM (≈ 0.65 µg/mL)	0.39 µM (≈ 0.65 µg/mL)	4	2	0.39 µM (≈ 0.65 µg/mL)	0.39 µM (≈ 0.65 µg/mL)	2	25 µM (≈ 41.7 µg/mL)	16	12.5 µM (≈ 20.8 µg/mL)	> 250 µM	12.5 µM (≈ 20.8 µg/mL)	32	> 250 µM	> 250 µM	2	MIC (MRSA KS89): 0.39 µM (≈ 0.65 µg/mL); MIC (S. aureus VRSA): 1.56 µM (≈ 2.6 µg/mL); MIC-fold improvement vs. vancomycin (S. aureus VRSA): 64; MIC (S. aureus VISA/HIP5827): 1.56 µM (≈ 2.6 µg/mL); MIC-fold improvement vs. vancomycin (S. aureus VISA/HIP5827): 4; MIC-fold improvement vs. vancomycin (MRSA KS6): 0.25; MIC (MRSA KS6): 3.13 µM (≈ 5.22 µg/mL)
CNC(CC(C)C)C(=O)NC1C(=O)NC(CC(N)=O)C(=O)NC2C(=O)NC3C(=O)NC(C(=O)NC(C(=O)NCCNC(=O)C4c5ccccc5-c5ccccc54)c4cc(O)cc(O)c4-c4cc3ccc4O)C(O)c3ccc(c(Cl)c3)Oc3cc2cc(c3OC2OC(CO)C(O)C(O)C2OC2CC(C)(N)C(O)C(C)O2)Oc2ccc(cc2Cl)C1O (stereo not drawn) [Vanc-46]	6.25 µM (≈ 10.5 µg/mL)	32	235 ± 21 µM	2	0.39 µM (≈ 0.657 µg/mL)	0.78 µM (≈ 1.31 µg/mL)	2	1	0.78 µM (≈ 1.31 µg/mL)	0.78 µM (≈ 1.31 µg/mL)	1	25 µM (≈ 42.1 µg/mL)	16	25 µM (≈ 42.1 µg/mL)	180 µM	25 µM (≈ 42.1 µg/mL)	16	108 ± 9 µM	197 ± 18 µM	2	MIC-fold improvement vs. vancomycin (E. faecalis VRE 37): 16; MIC (MRSA KS89): 0.39 µM (≈ 0.657 µg/mL); MIC (S. aureus VRSA): 6.25 µM (≈ 10.5 µg/mL); MIC-fold improvement vs. vancomycin (S. aureus VRSA): 16; MIC (S. aureus VISA/HIP5827): 1.56 µM (≈ 2.63 µg/mL); MIC-fold improvement vs. vancomycin (S. aureus VISA/HIP5827): 4; MIC-fold improvement vs. vancomycin (MRSA KS6): 0.25; MIC (MRSA KS6): 3.13 µM (≈ 5.27 µg/mL)
CN[C@H](CC(C)C)C(=O)N[C@H]1C(=O)N[C@@H](CC(N)=O)C(=O)N[C@H]2C(=O)N[C@H]3C(=O)N[C@H](C(=O)N[C@H](C(=O)NCCNC(=O)CC(c4ccccc4)c4ccccc4)c4cc(O)cc(O)c4-c4cc3ccc4O)[C@H](O)c3ccc(c(Cl)c3)Oc3cc2cc(c3O[C@@H]2O[C@H](CO)[C@@H](O)[C@H](O)[C@H]2O[C@H]2C[C@](C)(N)[C@H](O)[C@H](C)O2)Oc2ccc(cc2Cl)[C@H]1O [Vanc-47]	6.25 µM (≈ 10.6 µg/mL)	32	240 ± 4 µM	2	0.39 µM (≈ 0.663 µg/mL)	0.78 µM (≈ 1.33 µg/mL)	2	2	0.39 µM (≈ 0.663 µg/mL)	0.78 µM (≈ 1.33 µg/mL)	1	50 µM (≈ 85 µg/mL)	8	25 µM (≈ 42.5 µg/mL)	199 µM	25 µM (≈ 42.5 µg/mL)	16	106 ± 14 µM	≥ 250 µM	2	MIC-fold improvement vs. vancomycin (E. faecalis VRE 37): 16; MIC (MRSA KS89): 0.39 µM (≈ 0.663 µg/mL); MIC (S. aureus VRSA): 3.13 µM (≈ 5.32 µg/mL); MIC-fold improvement vs. vancomycin (S. aureus VRSA): 32; MIC (S. aureus VISA/HIP5827): 1.56 µM (≈ 2.65 µg/mL); MIC-fold improvement vs. vancomycin (S. aureus VISA/HIP5827): 4; MIC-fold improvement vs. vancomycin (MRSA KS6): 0.25; MIC (MRSA KS6): 3.13 µM (≈ 5.32 µg/mL)

Source: paper PMC6001238, “Iterative Chemical Engineering of Vancomycin Leads to Novel Vancomycin Analogs With a High in Vitro Therapeutic Index” (Frontiers in Microbiology, 2018)
